Test results reported in publication PMC9570594, “Development of Novel Pyridine-Thiazole Hybrid Molecules as Potential Anticancer Agents” (Molecules, 2022).

Experiments:
[1] = tested on: CCRF-CEM (Leukemia); experiment: NCI five-dose SRB assay; type: cell-based; details: Homo sapiens, 48 h
[2] = tested on: EKVX (Non-Small Cell Lung Cancer); experiment: NCI five-dose SRB assay; type: cell-based; details: Homo sapiens, 48 h
[3] = tested on: Prostate Cancer cell lines (MG_MID); experiment: NCI five-dose SRB assay; type: cell-based; details: Homo sapiens, 48 h
[4] = tested on: KM12 (Colon Cancer); experiment: NCI one-dose SRB assay; details: 10 μM, 48 h
Description: A primary anticancer assay was performed on a panel of approximately sixty human tumor cell lines derived from nine neoplastic diseases, in accordance with the protocol of the Drug Evaluation Branch, National Cancer Institute, Bethesda [31, 32, 33, 34, 35]. Tested compounds were added to the culture at a single concentration (10^−5 M) and the cultures were incubated for 48 h. End point determinations were made with a protein binding dye, Sulphorhodamine B (SRB). […] The percentage growth was evaluated spectrophotometrically versus controls not treated with test agents.

[5] = tested on: murine macrophages of J774.2 line; experiment: MTT assay of cell viability; details: Mus musculus, J774.2, 72 h
[6] = tested on: BALB-3T3 (normal mouse fibroblasts); experiment: MTT assay of cell viability; details: BALB/3T3, 72 h

For `CCOC(=O)c1ccc(NC(=O)CSC(CC(=O)c2sc(Nc3ccccn3)nc2C)c2ccccc2F)cc1` (stereo not drawn) [Compound 4, Ethyl 4-[[2-[1-(2-Fluorophenyl)-3-[4-methyl-2-(2-pyridylamino)thiazol-5-yl]-3-oxopropyl]sulfanylacetyl]amino]benzoate], the GI50 [1] was 18.6 µM, the GI50 [2] was 19 µM and the GI50 [3] was 45.5 µM. The Growth % [4] was −59.82%, the IC50 [5] was greater than 50 µM and the IC50 [6] was 7.79 ± 0.38 µM.
